Earlier results in article PMC13343212, “Hybrid Aminoferrocenes With Nitrate Esters for In Situ Peroxynitrite Generation: Complex Interplay Between Redox Chemistry, NO‐Donor Reactivity, and Aminoferrocene Activation Influences In Vitro Anticancer Activity” (Chembiochem, 2026).

Conditions: references for RP‐TLC calibration

Compound | LogP of known references
c1ccc2cc3ccccc3cc2c1 [anthracene] | 4.50
c1cc2cccc3c4cccc5cccc(c(c1)c23)c54 [perylene] | 6.25
